Source: ChEMBL document CHEMBL3351354, “From the covalent linkage of drugs to novel inhibitors of ribonucleotide reductase: synthesis and biological evaluation of valproic esters of 3'-C-methyladenosine” (Bioorg Med Chem Lett, 2014)
Values belong to the molecule of their own block, whether it stands above or below them. Activity calls are given as the source filed them. The calls are words filed in the database; no cut-off is given here.

Legend:
HL-60 [1] = experiment: Induction of cell cycle arrest in human HL60 cells assessed as accumulation at G1 phase at 0.5 mM after 24 hrs by propidium iodide staining based flow cytometry (reference value: 32%); assay type: functional
HL-60 [2] = experiment: Induction of cell cycle arrest in human HL60 cells assessed as accumulation at S phase at 0.5 mM after 24 hrs by propidium iodide staining based flow cytometry (reference value: 54%); assay type: functional
HL-60 [3] = experiment: Induction of cell cycle arrest in human HL60 cells assessed as accumulation at G2M phase at 0.5 mM after 24 hrs by propidium iodide staining based flow cytometry (reference value: 12%); assay type: functional
[4] = Cytotoxicity against human HL60 cells after 24 to 48 hrs by trypan blue dye exclusion method; assay type: functional, cell-based; conditions: HL-60
HL-60 [5] = experiment: Induction of apoptosis in human HL60 cells after 24 to 48 hrs by acridine orange and ethidium bromide staining based fluorescence microscopy; assay type: functional, cell-based; conditions: Homo sapiens, HL-60; read-out: AC50
[6] = Growth inhibition of human HL60 cells after 48 hrs by MTT assay; assay type: functional, cell-based, HL-60
K562 = experiment: Growth inhibition of human K562 cells after 48 hrs by MTT assay; assay type: functional, cell-based
HuT78 = experiment: Growth inhibition of human HUT78 cells after 48 hrs by MTT assay; assay type: functional, cell-based
HT-29 = experiment: Growth inhibition of human HT-29 cells after 48 hrs by MTT assay; assay type: functional, cell-based
MCF7 = experiment: Growth inhibition of human MCF7 cells after 48 hrs by MTT assay; assay type: functional, cell-based
HeLa = experiment: Growth inhibition of human HeLa cells after 48 hrs by MTT assay; assay type: functional, cell-based
[7] = Growth inhibition of human Caco2 cells after 48 hrs by MTT assay; assay type: functional, cell-based, Caco-2
[8] = biological target: Histone deacetylase (Homo sapiens) (UniProt Q13547+O15379+Q9UBN7+Q92769+Q9UQL6+Q8WUI4+Q9BY41+Q96DB2+P56524+Q9UKV0+Q969S8); experiment: Inhibition of HDAC in human HL60 cells assessed as increase in histone H3 acetylation at 1 mM after 24 hrs by Western blotting method; assay type: cell-based; conditions: HL-60
HL-60 [9] = experiment: Induction of cell cycle arrest in human HL60 cells assessed as accumulation at G1 phase at 2 mM after 24 hrs by propidium iodide staining based flow cytometry (reference value: 32%); assay type: functional
HL-60 [10] = experiment: Induction of cell cycle arrest in human HL60 cells assessed as accumulation at S phase at 2 mM after 24 hrs by propidium iodide staining based flow cytometry (reference value: 54%); assay type: functional
HL-60 [11] = experiment: Induction of cell cycle arrest in human HL60 cells assessed as accumulation at G2M phase at 2 mM after 24 hrs by propidium iodide staining based flow cytometry (reference value: 12%); assay type: functional
HL-60 [12] = experiment: Induction of cell cycle arrest in human HL60 cells assessed as accumulation at G1 phase at 5 mM after 24 hrs by propidium iodide staining based flow cytometry (reference value: 32%); assay type: functional
HL-60 [13] = experiment: Induction of cell cycle arrest in human HL60 cells assessed as accumulation at S phase at 5 mM after 24 hrs by propidium iodide staining based flow cytometry (reference value: 54%); assay type: functional
HL-60 [14] = experiment: Induction of cell cycle arrest in human HL60 cells assessed as accumulation at G2M phase at 5 mM after 24 hrs by propidium iodide staining based flow cytometry (reference value: 12%); assay type: functional
HL-60 [15] = experiment: Induction of ROS generation in human HL60 cells at 50 and 100 uM after 24 hrs by DCFH-DA staining based flow cytometry; assay type: functional, cell-based

Structure (SMILES): NC(=O)NO [HYDROXYUREA]
- Activity (HL-60 [1]): 86%
- Activity (HL-60 [2]): 7%
- Activity (HL-60 [3]): 7%

- IC50 (K562; Homo sapiens, K562, 48 h, read-out: IC50): > 1000 µM
- IC50 (HT-29; Homo sapiens, HT-29, 48 h, read-out: IC50): > 1000 µM
- IC50 (MCF7; Homo sapiens, MCF7, 48 h, read-out: IC50): 230 µM
- IC50 (HeLa; Homo sapiens, HeLa, 48 h, read-out: IC50): 1000 µM
- inhibition [8]: Active
Structure (SMILES): CCCC(CCC)C(=O)O [VALPROIC ACID]
- IC50 [4]: 1700 µM
- AC50 (HL-60 [5]): 2500 µM
- IC50 ([6]; Homo sapiens, HL-60, 48 h, read-out: IC50): 1700 µM
- IC50 (HuT78; Homo sapiens, HuT78, 48 h, read-out: IC50): 1800 µM
- IC50 ([7]; Homo sapiens, Caco-2, 48 h, read-out: IC50): > 1000 µM
- Activity (HL-60 [9]): 78%
- Activity (HL-60 [10]): 8%
- Activity (HL-60 [11]): 14%
- Activity (HL-60 [12]): 39%
- Activity (HL-60 [13]): 5%
- Activity (HL-60 [14]): 55%
- Activity (HL-60 [15]): inactive

- IC50 (K562; k562): ND(Insoluble)
- IC50 (HT-29; ht-29): ND(Insoluble)
- IC50 (MCF7; mcf7): ND(Insoluble)
- IC50 (HeLa; hela): ND(Insoluble)
Structure (SMILES): CCCC(CCC)C(=O)Nc1ncnc2c1ncn2[C@@H]1O[C@H](COC(=O)C(CCC)CCC)[C@@](C)(O)[C@H]1OC(=O)C(CCC)CCC
- IC50 ([6]; hl-60): ND(Insoluble)
- IC50 (HuT78; hut78): ND(Insoluble)
- IC50 ([7]; caco-2): ND(Insoluble)
